Laboratory results: US20080287546A1, “Quorum Sensing Modulators” (priority 2005, published 2008)

Key:
[1] = system: LasR dependent quorum sensing controlled promoter, prsaL (reporter strain MW1.pUM15); assay: Signal Reception Assay (SRA), inhibition of the reporter in the presence of 0.3 μM 3-oxo-C12-HSL; format: cell-based, Pseudomonas aeruginosa; conditions: compound at 100 μM
Excerpt: (§1) The CSA yields a fluorescent signal reporting both signal synthesis and signal reception. The SRA yields a fluorescent signal due to signal reception. Compounds affecting signal reception can be detected by SRA. The SRA can detect compounds that modulate quorum sensing by inhibiting signal reception or activating signal reception. Inhibitor compounds are identified by performing the SRA with exogenous autoinducer at a concentration of half maximal activation and detecting changes in fluorescence indicative of inhibition of signal reception. Activator compounds are identified by performing the SRA in the absence of exogenous autoinducer.
The plasmid pUM15 carries a YFP reporter under control of a LasR dependent quorum sensing controlled promoter, prsaL. […] This is referred to as the Signal Reception Assay, as only those compounds that modulate signal reception will be detected.
Cells were grown in LB with 50 mM 3-(N-morpholino)propanesulfonic acid (MOPS) pH 7.0, 300 μg/mL carbenicillin. A single colony of MW1.pUM15 from a freshly struck plate was used to inoculate a starter culture and grown shaking at 30° C. not above an absorbance at 600 nm (A600) of 1.5. […]
Nanoplate format: Assay reagents were dispensed with the flying reagent dispenser, FRD (Vertex Pharmaceuticals Incorporated, San Diego, Calif.). […] Fluorescence was read with a SpectroFluor Plus plate reader (Tecan US, Durham, N.C.). […]

[2] = system: LasR dependent quorum sensing controlled promoter, prsaL (reporter strain MW1.pUM15); assay: Signal Reception Assay (SRA), activation of the reporter in the absence of an activating signal; format: cell-based, Pseudomonas aeruginosa; conditions: for activation of the reporter (agonist activity): compound at 100 μM, absence of an activating signal, SRA, MW1.pUM15
Excerpt: as §1
The plasmid pUM15 carries a YFP reporter under control of a LasR dependent quorum sensing controlled promoter, prsaL. When the plasmid is harbored by MW1, a strain lacking the ability to produce acylated homoserine lactones, the reporter is induced only in the presence of exogenous autoinducer. This is referred to as the Signal Reception Assay, as only those compounds that modulate signal reception will be detected.
Cells were grown in LB with 50 mM 3-(N-morpholino)propanesulfonic acid (MOPS) pH 7.0, 300 μg/mL carbenicillin. A single colony of MW1.pUM15 from a freshly struck plate was used to inoculate a starter culture and grown shaking at 30° C. not above an absorbance at 600 nm (A600) of 1.5. Cells were subcultured to A600 of 0.05 and grown shaking at 37° C. for 1-2 h. These mid-logarithmic cells were then added to dried down 3-oxo-C12-HSL to result in a final concentration of 0.3 μM. Induced cells were pipetted into wells containing the test compound. Uninduced cells were included as a control for the assay window. When the assay was used to characterize a potential activator, no homoserine lactone was added.
Nanoplate format: Assay reagents were dispensed with the flying reagent dispenser, FRD (Vertex Pharmaceuticals Incorporated, San Diego, Calif.). An aliquot of 1.5 μL reporter culture was added to wells in 3,456-well plates (3456 plates) and grown for 8-12 h before reading fluorescence with the topography-compensating plate reader, tcPR (Vertex Pharmaceuticals Incorporated, San Diego, Calif.). DR96 format: an aliquot of 50 μL culture was added to 96 well plate and grown for 6-8 h. Fluorescence was read with a SpectroFluor Plus plate reader (Tecan US, Durham, N.C.).
In all formats, plates were sealed in a humidified container and incubated staticly at 37° C. Fluorescence measurements were made with an excitation wavelength of 485 nm and emission wavelength of […]. To evaluate growth in the presence of test compound, the absorbance at 620 nm was also recorded.
The compounds in Table 2 were purchased from Chembridge Corp. (San Diego, Calif.), Specs (Wakefield, R.I.), Interbioscreen Ltd. (Moscow, Russia) and Chemical Diversity Labs, Inc. (San Diego, Calif.), and were characterized with the reporter strain MW1.pUM15 in both microtiter plate format and a shaking tube format. […] The tube format was performed to eliminate plate effects that may mask low levels of inhibition.
In both formats, the compounds were tested for (1) activation of the reporter in the absence of an activating signal, and (2) inhibition of the reporter in the presence of 0.3 μM 3-oxo-C12-HSL. All compounds were tested at 100 μM for their ability to activate or inhibit quorum sensing using the SRA assay. […]

How did the “inhibition of the reporter (antagonist activity)” value [1] turn out when `O=C(Nc1ccccc1NC(=O)c1cccc(Cl)c1)c1cccc(Cl)c1` [Compound 1] was run?
The value was “largest degree of inhibition”.

`O=C(Oc1c(Br)cc(Br)cc1CNC(=O)c1ccccc1Cl)c1ccc(F)cc1` [Compound 2] was tested. Which “activation of the reporter (agonist activity)” value (“activation of the reporter” for short) [2] did it give?
Its value is “activating effects”.

Which “activation of the reporter” value [2] does the source give for `Cc1ccccc1C(=O)Oc1c(Br)cc(Br)cc1CNC(=O)c1ccccc1Cl` [Compound 3] here?
The value was “activating effects”.

For `Cc1cc(C)c(OC(=O)c2ccc(Cl)cc2Cl)c(CNC(=O)c2ccccc2Cl)c1` [Compound 4], which “activation of the reporter” value [2] is on record?
The value was “activating effects”.

With `O=C(NCc1cc(Br)cc(Br)c1OC(=O)c1ccccc1[N+](=O)[O-])c1ccccc1Cl` [Compound 5] as the compound, how does the “activation of the reporter” value [2] read?
The value was “activating effects”.

And the “activation efficacy (FIG. 2), compared with 3-oxo-C12-HSL” value ([2]; fluorescence in the SRA as a function of concentration, in the presence of 0.75% DMSO)?
Its value is “an activating effect equal to 3-oxo-C12-HSL but at reduced concentrations”.
